Test results published in EP2762573A1, “In vitro method for determining cholestatic properties of a compound” (priority 2013, dated 2014).
Each block holds one molecule with its values, some of them ahead of it.

How the values were obtained:
Details in all cases: male, C57BL/6, mouse
Bcl2l11 = test: Biomarkers validation by q-pcr in precision cut liver slices: Bcl2l11 expression
Procedure: (§1) 23-weeks old male C57BL/6 mice were obtained from Harlan (Horst, The Netherlands). Animals were kept for 1 week at a housing temperature of 22°C and at a relative humidity of 30-70%. The lighting cycle was 12-h light and 12-h dark. At the age of 24 weeks animals were sacrificed by an overdose of isoflurane. The treatment protocol was approved by the Ethical Committee for Animal Experiments at Wageningen University.
(§2) Immediately after the animals were killed the liver was perfused with PBS and placed in ice-cold Krebs-Henseleit buffer (KHB) (pH 7.4, supplemented with 11 mM glucose). Liver tissue was transported to the laboratory within approximately 30 min and cylindrical liver cores were produced using a surgical biopsy punch with diameter of 5 mm (KAI, SynErgo Europe, Romania). Liver cores were placed in a Krumdieck tissue slicer (Alabama Research and Development, Munford, AL) filled with ice-cold KHB aerated with carbogen and supplemented with 11 mM glucose. Precesion cut liver slices (PCLS) with a diameter of 5 mm, a thickness of 0.2 mm and a weight of approximately 10 mg were prepared. Immediately after preparation, slices were transferred into culture plates filled with pre-warmed (37 degrees C) Williams E medium (WEM). Three liver slices were pre-cultured in one well of the 6-well plate filled with 4 ml of WEM for one hour with continuous shaking (70 rpm). Incubations were performed in an oxygen controlled incubator (Galaxy 48 R New Brunswick, Nijmegen, the Netherlands) at 80% of oxygen; 5% CO2 and the remaining gas volume was filled up to […] with N2. After one hour of pre-incubation, media were removed and replaced with fresh media containing test compounds or appropriate solvents. After incubations, samples were snap-frozen in liquid nitrogen and stored in -80 °C for further analysis. Samples dedicated to histology were stored in 4 % formaldehyde at room temperature.
(§3) PCLS were incubated at the same conditions as described above. Slices were exposed for 24 and 48 hours to one concentration of the tested compounds or controls. Concentrations used in the exposure experiments were preselected in the dose selection experiments for each drug individually. […] For the necrotic compounds: 1000 uM acetaminophen, 5 µM paraquat and 1000 uM isoniazid. Liver slices obtained from five mice were used in five toxic compound or control exposure experiments performed at the same time. Dose selection experiments and exposure experiments were performed at different days. Therefore, ATP, LDH, and protein assays were performed again for the exposure experiments to confirm that the selected doses did also not affect slice viability in these experiments.
(§4) In further studies, expression of ten candidate biomarkers in PCLS was analyzed by q-pcr using the Biorad CFX96 TM Real-Time Detection System (Bio-Rad, Veenendaal, The Netherlands) with the following cycling conditions: 15 min 95°C followed by 40 cycles of 15s 95 °C and 1 min 60 °C. Reactions were performed in 10 µl and contained 20 ng cDNA, 1x TaqMan PCR Master Mix (Applied Biosystems, Foster City, CA), and depending on the analysed gene, 250 nM probe and 900 nM primer (for actin b) or 1xTaqMan gene expression assay (for the remaining genes) (Applied Biosystems, foster City, CA).

Parp16 = test: Biomarkers validation by q-pcr in precision cut liver slices: Parp16 expression
Procedure: as §1, §2, §3, §4

Mras = test: Biomarkers validation by q-pcr in precision cut liver slices: Mras expression
Procedure: as §1, §2, §3, §4

Myo1e = test: Biomarkers validation by q-pcr in precision cut liver slices: Myo1e expression
Procedure: as §1, §2, §3, §4

Nme6 = test: Biomarkers validation by q-pcr in precision cut liver slices: Nme6 expression
Procedure: as §1, §2, §3, §4

ABCG5 = test: Biomarkers validation by q-pcr in precision cut liver slices: ABCG5 expression
Procedure: as §1, §2, §3, §4

ABCG8 = test: Biomarkers validation by q-pcr in precision cut liver slices: ABCG8 expression
Procedure: as §1, §2, §3, §4

SERPINE1 = test: Biomarkers validation by q-pcr in precision cut liver slices: SERPINE1 expression
Procedure: as §1, §2, §3, §4

BAAT = test: Biomarkers validation by q-pcr in precision cut liver slices: BAAT expression
Procedure: as §1, §2, §3, §4

KLF15 = test: Biomarkers validation by q-pcr in precision cut liver slices: KLF15 expression
Procedure: as §1, §2, §3, §4

PCLS = test: Cytotoxicity analysis - dose selection experiments (LDH, ATP, protein assay)
Procedure: as §1, §2, §3

*fold change 1, gene expression level Bcl2111 (Bcl2l11): 1,9
*fold change 2, gene expression level Bcl2111 (Bcl2l11): 1,1
*fold change 3, gene expression level Bcl2111 (Bcl2l11): 2,0
*fold change 4, gene expression level Bcl2111 (Bcl2l11): 2,4
*fold change 5, gene expression level Bcl2111 (Bcl2l11): 1,7
*fold change 1, gene expression level Parp 16 (Parp16): 1,4
*fold change 2, gene expression level Parp 16 (Parp16): -1,3
*fold change 3, gene expression level Parp 16 (Parp16): 1,4
*fold change 4, gene expression level Parp 16 (Parp16): 1,5
*fold change 5, gene expression level Parp 16 (Parp16): 1,6
*fold change 1, gene expression level Mras (Mras): 1,7
*fold change 2, gene expression level Mras (Mras): -1,0
*fold change 3, gene expression level Mras (Mras): 1,3
*fold change 4, gene expression level Mras (Mras): 1,2
*fold change 5, gene expression level Mras (Mras): 1,4
*fold change 1, gene expression level Myo 1e (Myo1e): 1,1
*fold change 2, gene expression level Myo 1e (Myo1e): -1,2
*fold change 3, gene expression level Myo 1e (Myo1e): 1,4
*fold change 4, gene expression level Myo 1e (Myo1e): 1,4
*fold change 5, gene expression level Myo 1e (Myo1e): 1,4
*fold change 1, gene expression level Nme6 (Nme6): -1,2
*fold change 2, gene expression level Nme6 (Nme6): -1,2
*fold change 3, gene expression level Nme6 (Nme6): -1,1
*fold change 4, gene expression level Nme6 (Nme6): -1,3
*fold change 5, gene expression level Nme6 (Nme6): 1,0
*fold change 1, gene expression level ABCG5 (ABCG5): -2,1
*fold change 2, gene expression level ABCG5 (ABCG5): -1,3
*fold change 3, gene expression level ABCG5 (ABCG5): 1,4
*fold change 4, gene expression level ABCG5 (ABCG5): -1,4
*fold change 5, gene expression level ABCG5 (ABCG5): 1,1
*fold change 1, gene expression level ABCG8 (ABCG8): -1,7
*fold change 2, gene expression level ABCG8 (ABCG8): -1,2
*fold change 3, gene expression level ABCG8 (ABCG8): 1,4
*fold change 4, gene expression level ABCG8 (ABCG8): -1,1
*fold change 5, gene expression level ABCG8 (ABCG8): 1,4
*fold change 1, gene expression level SERPINE1 (SERPINE1): -1,6
*fold change 2, gene expression level SERPINE1 (SERPINE1): -1,4
*fold change 3, gene expression level SERPINE1 (SERPINE1): 1,2
*fold change 4, gene expression level SERPINE1 (SERPINE1): -1,3
*fold change 5, gene expression level SERPINE1 (SERPINE1): 1,5
*fold change 1, gene expression level BAAT (BAAT): -5,0
*fold change 2, gene expression level BAAT (BAAT): -2,0
*fold change 3, gene expression level BAAT (BAAT): -1,4
*fold change 4, gene expression level BAAT (BAAT): -2,8
*fold change 5, gene expression level BAAT (BAAT): -1,5
*fold change 1, gene expression level KLF15 (KLF15): -1,5
*fold change 2, gene expression level KLF15 (KLF15): -1,2
*fold change 3, gene expression level KLF15 (KLF15): -1,4
*fold change 4, gene expression level KLF15 (KLF15): -1,1
*fold change 5, gene expression level KLF15 (KLF15): 1,2
Compound: CC(=O)Nc1ccc(O)cc1 [APAP, acetaminophen]
highest concentration that did not cause significant increase of toxicity (PCLS): 1000 µM

*fold change 1, gene expression level Bcl2111 (Bcl2l11): -1,2
*fold change 2, gene expression level Bcl2111 (Bcl2l11): -1,4
*fold change 3, gene expression level Bcl2111 (Bcl2l11): -1,2
*fold change 4, gene expression level Bcl2111 (Bcl2l11): -1,9
*fold change 5, gene expression level Bcl2111 (Bcl2l11): -2,3
*fold change 1, gene expression level Parp 16 (Parp16): -1,1
*fold change 2, gene expression level Parp 16 (Parp16): -1,4
*fold change 3, gene expression level Parp 16 (Parp16): -1,1
*fold change 4, gene expression level Parp 16 (Parp16): -1,4
*fold change 5, gene expression level Parp 16 (Parp16): -1,0
*fold change 1, gene expression level Mras (Mras): 1,3
*fold change 2, gene expression level Mras (Mras): 2,0
*fold change 3, gene expression level Mras (Mras): 2,6
*fold change 4, gene expression level Mras (Mras): 1,4
*fold change 5, gene expression level Mras (Mras): 1,1
*fold change 1, gene expression level Myo 1e (Myo1e): -1,1
*fold change 2, gene expression level Myo 1e (Myo1e): -1,0
*fold change 3, gene expression level Myo 1e (Myo1e): 1,1
*fold change 4, gene expression level Myo 1e (Myo1e): 1,0
*fold change 5, gene expression level Myo 1e (Myo1e): -1,1
*fold change 1, gene expression level Nme6 (Nme6): 1,1
*fold change 2, gene expression level Nme6 (Nme6): 1,3
*fold change 3, gene expression level Nme6 (Nme6): 1,7
*fold change 4, gene expression level Nme6 (Nme6): 1,3
*fold change 5, gene expression level Nme6 (Nme6): 1,2
*fold change 1, gene expression level ABCG5 (ABCG5): -4,2
*fold change 2, gene expression level ABCG5 (ABCG5): -2,9
*fold change 3, gene expression level ABCG5 (ABCG5): -6,7
*fold change 4, gene expression level ABCG5 (ABCG5): -3,8
*fold change 5, gene expression level ABCG5 (ABCG5): -1,0
*fold change 1, gene expression level ABCG8 (ABCG8): -2,9
*fold change 2, gene expression level ABCG8 (ABCG8): -2,1
*fold change 3, gene expression level ABCG8 (ABCG8): -5,4
*fold change 4, gene expression level ABCG8 (ABCG8): -4,5
*fold change 5, gene expression level ABCG8 (ABCG8): -1,1
*fold change 1, gene expression level SERPINE1 (SERPINE1): 2,9
*fold change 2, gene expression level SERPINE1 (SERPINE1): -1,4
*fold change 3, gene expression level SERPINE1 (SERPINE1): -4,7
*fold change 4, gene expression level SERPINE1 (SERPINE1): -5,8
*fold change 5, gene expression level SERPINE1 (SERPINE1): -1,8
*fold change 1, gene expression level BAAT (BAAT): -2,3
*fold change 2, gene expression level BAAT (BAAT): -3,3
*fold change 3, gene expression level BAAT (BAAT): -8,5
*fold change 4, gene expression level BAAT (BAAT): -6,4
*fold change 5, gene expression level BAAT (BAAT): 1,4
*fold change 1, gene expression level KLF15 (KLF15): -2,0
*fold change 2, gene expression level KLF15 (KLF15): -1,8
*fold change 3, gene expression level KLF15 (KLF15): -3,2
*fold change 4, gene expression level KLF15 (KLF15): -1,8
*fold change 5, gene expression level KLF15 (KLF15): 1,6
Compound: CN(C)CCCN1c2ccccc2Sc2ccc(Cl)cc21 [CPZ, chlorpromazine]
highest concentration that did not cause significant increase of toxicity (PCLS): 10 µM
